“And” between values parts separate entries of the source, which are not always exact repeats. Equal values may be shown once.
Assays:
Format in all cases: cell-based, corn (Zea mays)
[1] = system: corn seed excised explants; assay: 2,4-D in co-culture and co-culture duration 4 vs 5 days on corn explant transformation (Tables 34, 35); conditions: for # Normal Plants / Normal Plant Frequency (%) / Shoot Frequency (%) / Total # Shoots: 2,4-D (5 mg/L) in co-culture +; for average normal plant frequency (%): 2,4-D present in co-culture (5 mg/L)
Procedure: In a separate experiment, co-culture durations of 4 days and 5 days were evaluated in combination with the presence or absence of 5 mg/L 2,4-D in the co-culture medium. Corn seed excised explants were surface sterilized, rehydrated and inoculated with an Agrobacterium suspension as described in the preceding experiment. The Agrobacterium contained a chloroplast-targeted CP4 EPSPS gene under the control of a constitutive promoter flanked by T-DNA borders on the Ti plasmid. The inoculated explants were transferred to co-culture plates with or without 5 mg/L 2,4-D and co-cultured for 4 or 5 days prior to bud induction, extended bud induction, and regeneration as described in the preceding experiment.
Furthermore, co-culture for 4 days produced a higher normal plant frequency compared to co-culture for 5 days.
The shoot frequency was calculated as the number of inoculated explants producing shoots divided by the total number of inoculated explants. The normal plant frequency was calculated as the number of normal plants divided by the total number of inoculated explants.
(§1) The normal plant frequency was calculated as the number of normal plants divided by the total number of inoculated explants.

[2] = system: corn seed excised explants; assay: 2,4-D in co-culture medium on corn explant transformation, 17 experiments (Table 32)
Procedure: Seventeen independent experiments were conducted to evaluate the effect of 2,4-D in the co-culture medium on corn explant transformation. Corn explants were surface sterilized, purified, rehydrated, inoculated with Agrobacterium, co-cultured, and subjected to bud induction, extended bud induction, and regeneration as described in Example 1, unless otherwise noted. Agrobacterium containing the same Ti plasmid as described in Example 9 was used for all experiments, except for experiments 13-17, in which two different bacterial origins of replication in the Ti-plasmid were evaluated in the presence or absence of 2,4-D in co-culture medium. In these cases, the Ti plasmids carried the same two expression cassettes flanked by T-DNA borders, one comprising the chloroplast-targeted CP4 EPSPS gene under the control of a constitutive promoter and the other comprising the uidA gene under the control of a similar constitutive promoter.
Table 32 provides a summary of results from treatments with and without 2,4-D in the co-culture medium from the 17 experiments. […] The increase in normal plant frequency ranged from 1.1 to 3.0-fold with an average increase of 1.8-fold.
as §1

corn explants = assay: Different cytokinins during bud induction on corn explant transformation (Table 30); conditions: for # Normal Shoot / Total # Shoot: 5,000 explants
Procedure: An experiment was conducted to evaluate the effect of using different cytokinins during bud induction on corn explant transformation. Corn explants were surface sterilized, purified, rehydrated, inoculated with Agrobacterium, co-cultured, and subjected to the bud induction (without the second extended bud induction step) and regeneration steps as described in Example 1, unless otherwise noted. Glyphosate was used as the selection agent.
In this experiment, bud induction using four cytokinins, 6-Benzylaminopurine (BAP), Zeatin, thidiazuron (TDZ) and 6-(γ,γ-dimethylallylamino)purine (2iP), was evaluated.
The shoot frequency was calculated as the number of inoculated explants producing shoots divided by the total number of inoculated explants. The normal shoot frequency was calculated as the number of normal shoots divided by the total number of inoculated explants.

[3] = system: corn seed excised explants; assay: Corn explant transformation: bud induction with different glyphosate concentrations, 28° C. vs 35° C. first week (Table 2)
Procedure: To evaluate the effect of elevated temperature during the initial bud induction step on transformation, two temperature treatments were evaluated using glyphosate for selection: 1) bud induction for two weeks at 28° C.; and 2) bud induction for one week at an elevated temperature of 35° C. followed by one week of bud induction at 28° C. The proceeding and subsequent steps for transformation of the corn explants in this experiment were generally performed as described in Example 1.
Following Agrobacterium inoculation and co-culture, corn explants were transferred to bud induction medium containing MS salts and B5 vitamins supplemented with 2 mg/L TDZ, 1 mg/L 2,4-D and different concentrations of glyphosate and cultured under the temperature conditions described above.
Total number shoots was calculated as the total number of shoots regenerated from inoculated explants, including both normal and chimeric shoots. The shoot frequency was calculated as the number of inoculated explants producing shoots divided by the total number of inoculated explants. […] The percentage normal shoots was calculated as the number of normal shoots divided by the total number of shoots. Normal shoot frequency was calculated as the number of normal shoots divided by the total number of inoculated explants.

[4] = cytokinin 10 mg/L in bud induction
[5] = glyphosate 12.5 μM, 1st week bud induction 28° C.
[6] = glyphosate 12.5 μM, 1st week bud induction 35° C.
[7] = glyphosate 25.0 μM, 1st week bud induction 28° C.
[8] = glyphosate 25.0 μM, 1st week bud induction 35° C.
[9] = glyphosate 37.5 μM, 1st week bud induction 28° C.
[10] = glyphosate 37.5 μM, 1st week bud induction 35° C.
[11] = glyphosate 50.0 μM, 1st week bud induction 28° C.
[12] = glyphosate 50.0 μM, 1st week bud induction 35° C.
[13] = cytokinin 2 mg/L in bud induction

`O=C(O)COc1ccc(Cl)cc1Cl` [2,4-D, 2,4-dichlorophenoxyacetic acid] was tested, and the “# Normal Plants” value ([1]; co-culture duration 4 days) was 19 and 10, the “Normal Plant Frequency (%)” value ([1]; co-culture duration 4 days) was 0.8% and 0.9% and the “Shoot Frequency (%)” value ([1]; co-culture duration 4 days) was 1.5% and 1.1%. For the same compound, the “Total # Shoots” value ([1]; co-culture duration 4 days) was 35 and 21, the “# Normal Plants” value ([1]; co-culture duration 5 days) was 4 and the “Normal Plant Frequency (%)” value ([1]; co-culture duration 5 days) was 0.5%. The “Shoot Frequency (%)” value ([1]; co-culture duration 5 days) was 1.1%, the “Total # Shoots” value ([1]; co-culture duration 5 days) was 9 and the “average normal plant frequency (%)” value ([1]; duration 4 days) was 0.85%. The “average normal plant frequency (%)” value ([1]; duration 5 days) was 0.5%, the “average normal plant frequency” value ([1]; 2,4-D present in co-culture medium (5 mg/L), 4 and 5 days) was 0.73% and the “Normal Plant Frequency (%) With 2,4-D (5 mg/L)” value ([2]; 2,4-D 5 mg/L in co-culture medium, individual experiments 1-17, normal plants / inoculated explants) was 1.10% and 1.24% and 1.48% and 0.20% and 0.60% and 2.40% and 1.70% (2×) and 4.20% and 1.50% and 0.40% (2×) and 0.70% and 0.80% and 1.40% and 1.00% and 1.56%. The “Normal Plant Frequency (%) With 2,4-D (5 mg/L), OVERALL” value ([2]; 2,4-D 5 mg/L in co-culture medium, overall of 17 experiments) was 1.32% and the “average increase in normal plant frequency on removal of 2,4-D from the co-culture medium” value ([2]; 17 experiments) was 1.8 fold.
For `CC(C)=CCNc1ncnc2nc[nH]c12` [2iP, 6-(γ,γ-dimethylallylamino)purine], the “Normal Shoot Frequency (%)” value (corn explants; [4]) was 0.06%, the “Shoot Frequency (%)” value (corn explants; [4]) was 0.14% and the “# Normal Shoot” value (corn explants; [4]) was 3. The “Total # Shoot” value (corn explants; [4]) was 7.
With `c1ccc(CNc2ncnc3nc[nH]c23)cc1` [BAP, 6-Benzylaminopurine] the “Normal Shoot Frequency (%)” value (corn explants; [4]) was 1.56%, the “Shoot Frequency (%)” value (corn explants; [4]) was 5.80% and the “# Normal Shoot” value (corn explants; [4]) was 78. For the same compound, the “Total # Shoot” value (corn explants; [4]) was 290 and the bud induction (corn explants; other studies, 1-8 mg/L BAP) was “bud induction was also observed”.
With `O=C(O)CNCP(=O)(O)O` [Glyphosate, glyphosate] the “Normal Shoot Frequency (%)” value [3, 5] was 0.36%, the “Normal Shoots (%)” value [3, 5] was 10.23% and the “Shoot Frequency (%)” value [3, 5] was 3.52%. For the same compound, the “Total # Normal Shoots” value [3, 5] was 9, the “Total # Shoots” value [3, 5] was 88 and the “Normal Shoot Frequency (%)” value [3, 6] was 1.12%. For the same compound, the “Normal Shoots (%)” value [3, 6] was 14.43%, the “Shoot Frequency (%)” value [3, 6] was 7.76% and the “Total # Normal Shoots” value [3, 6] was 28. For the same compound, the “Total # Shoots” value [3, 6] was 194, the “Normal Shoot Frequency (%)” value [3, 7] was 0.28% and the “Normal Shoots (%)” value [3, 7] was 31.82%. The “Shoot Frequency (%)” value [3, 7] was 0.88%, the “Total # Normal Shoots” value [3, 7] was 7 and the “Total # Shoots” value [3, 7] was 22. The “Normal Shoot Frequency (%)” value [3, 8] was 1.84%, the “Normal Shoots (%)” value [3, 8] was 20.91% and the “Shoot Frequency (%)” value [3, 8] was 8.8%. The “Total # Normal Shoots” value [3, 8] was 46, the “Total # Shoots” value [3, 8] was 220 and the “Normal Shoot Frequency (%)” value [3, 9] was 0.2%. For the same compound, the “Normal Shoots (%)” value [3, 9] was 83.33%, the “Shoot Frequency (%)” value [3, 9] was 0.24% and the “Total # Normal Shoots” value [3, 9] was 5. For the same compound, the “Total # Shoots” value [3, 9] was 6, the “Normal Shoot Frequency (%)” value [3, 10] was 1.36% and the “Normal Shoots (%)” value [3, 10] was 22.82%. The “Shoot Frequency (%)” value [3, 10] was 5.96%, the “Total # Normal Shoots” value [3, 10] was 34 and the “Total # Shoots” value [3, 10] was 149. For the same compound, the “Normal Shoot Frequency (%)” value [3, 11] was 0.16%, the “Normal Shoots (%)” value [3, 11] was 66.67% and the “Shoot Frequency (%)” value [3, 11] was 0.24%. The “Total # Normal Shoots” value [3, 11] was 4, the “Total # Shoots” value [3, 11] was 6 and the “Normal Shoot Frequency (%)” value [3, 12] was 1.8%. The “Normal Shoots (%)” value [3, 12] was 32.61%, the “Shoot Frequency (%)” value [3, 12] was 5.52% and the “Total # Normal Shoots” value [3, 12] was 45. For the same compound, the “Total # Shoots” value [3, 12] was 138.
With `O=C(Nc1ccccc1)Nc1cnns1` [TDZ, thidiazuron] the “Normal Shoot Frequency (%)” value (corn explants; [13]) was 1.70%, the “Shoot Frequency (%)” value (corn explants; [13]) was 8.88% and the “# Normal Shoot” value (corn explants; [13]) was 85. For the same compound, the “Total # Shoot” value (corn explants; [13]) was 444.
For `C/C(=C\CNc1ncnc2[nH]cnc12)CO` [Zeatin], the “Normal Shoot Frequency (%)” value (corn explants; [13]) was 0.06%, the “Shoot Frequency (%)” value (corn explants; [13]) was 0.20% and the “# Normal Shoot” value (corn explants; [13]) was 3. For the same compound, the “Total # Shoot” value (corn explants; [13]) was 10.
